From US7947312B2, “Method of preparation and composition of a water soluble extract of the bioactive component of the plant species Uncaria for enhancing immune, anti-inflammatory, anti-tumor and DNA repair processes of warm blooded animals” (priority 2002, dated 2011)
Each block holds one compound with its values, some of them ahead of it.

Experiments:
IκBα = assay: Western blotting of IκBα and phosphorylated IκBα in LPS-stimulated 70Z/3 cells; format: cell-based, mouse; settings: QA 2 mg/ml or PDTC 100 μM
Experimental: FIGS. 5C and 5D illustrate 70Z/3 cells (5×10^6) that were pre-treated with QA (2 mg/ml) or with PDTC (100 μM) as a positive control for two hours and thereafter stimulated with LPS (25 μg/ml) for the indicated time. Cytoplasmic extracts equalized for protein concentration were analyzed by western blotting using IκBα-specific antibodies. One representative experiment out of three (FIG. 5C) and one representative experiment out of two (FIG. 5D) are presented.
Preparation of cell extracts: The 70Z/3 cells were pretreated with QA (1 or 2 mg/ml) or with PDTC for 2 hours before they were stimulated with LPS for various time points. Whole cell extracts from the 70Z/3 cells (1×10^6) were prepared for analysis of the NF-κB signaling pathway. The cells were washed twice in PBS, resuspended in lysis buffer (75 mM Tris-HCl (pH 8.0), 100 mM NaCl, 5 mM KCl, 3 mM MgCl2, 2% NP-40, 1 mM PMSF and a protease inhibitor cocktail) (Roche Diagnostics Scandinavia AB) and incubated on ice for 10 min. The cell debris was pelleted and the supernatants were stored at −70° C. until Western Blot was performed.
Western blotting: Cellular extracts from 70Z/3 cells were separated on a 10% SDS polyacrylamide gel and the proteins were transferred to a nylon membrane. After blocking overnight in 5% dry fat-free milk in TBST, the membrane was incubated for 2 hrs with primary antibodies specific either to IκBα or to phosphorylated IκBα (both from Cell Signaling Technology Inc, Beverly, Mass.). The membranes were thereafter washed three times in TBST, and incubated with HRP-conjugated goat anti-rabbit antibodies (Amersham Pharmacia). The membranes were washed three times and chemoluminescence was detected using the ECL-reagent (Amersham Pharmacia) and x-ray film (CEA AB, Strängnäs, Sweden).

[1] = test system: HL-60 human leukemic cells; assay: In vitro cytotoxicity in HL-60 cells, MTT assay (Table 2); format: cell-based
Experimental: In Table 2, the in vitro cytotoxicity of the various components were determined in HL-60 human leukemic cells using the MTT assay and calculation of IC50 values as described in detail elsewhere. Quinic acid ester content was determined by the Bartos method (Bartos, 1980). […] The quinic acid traveling between Rf=0.2-0.3 was eluted from the TLC plates with 1% aqueous ammonia and the relative quantity estimated by absorption at 200 nm as ± being less than 0.050 and “++++” denoting the highest amount detected, with a decrease in the number of “+” signs corresponding to a decrease in the amount of QA detected.

[2] = test system: human HL-60 leukemic cells; assay: In vitro growth inhibition by QA salts in cultured HL-60 cells, MTT, 72 hr (FIG. 8); format: cell-based; settings: HL-60 cells
Experimental: QA was purchased from Sigma (>99%). QA salts were synthesized by neutralization with the appropriate base, i.e., NH4OH, NaOH, Ca(OH)2, Zn(OH)2, LiOH, KOH, lysine or histidine. Serial dilutions of test compounds were added to human HL-60 leukemic cells (0.05×10^6 cells/ml) in 96-well, flat bottomed microtiter plates to give final concentrations in the cultures up to 3000 μg/ml. The plates were incubated for 72 hr at 37 C, pulsed with 20 μl MTT (5 mg/ml) for 3 hr, and the color estimated spectrophotometrically at 540 nm as described previously. (Schweitzer, C M et al. Spectrophotometric determination of clonogenic capacity of leukemic cells in semisolid microtiter culture systems. Experimental Hematology 21: 573-578, 1993). IC50 values were calculated and compared based on the live/dead ratio of cells.

HL-60 W6899 cells = assay: HL-60 bioassay, microculture 5 days, clonogenicity estimated by MTT assay (Table 1); format: cell-based, human; settings: parameters are approximations
Experimental: An assay of biological activity of C-MED-100®'s active ingredient is prepared as follows: HL-60 […] cells are exposed in microculture at 5000 cells per well (96-well plates) for 5 days at 37 ? C. in a CO2 incubator. After incubation, the cells are washed with saline and clonogenicity estimated by MTT assay.

[3] = Acid and base hydrolysis of QAL and QA measured by Bartos reaction (Table 3); format: physicochemical; settings: 500 μg/test
Source text: To further characterize the QA analogs as the active ingredients in C-MED-100® in vitro, we determined the influence of base hydrolysis on the chemistry and biological activity of C-MED-100®. QAL is in fact a cyclic ester of QA, and as such it is an example representing the general class of QA esters. Elution from silica gel with 1% ammonia were the mandated chemical conditions necessary to remove the QA analog (i.e., active ingredient) from silica gel, which in turn favored the base hydrolysis of QA esters such as QAL to QA. If so, then identification of QA after base hydrolysis from the elution of silica gel, would then be consistent with the natural occurrence in C-MED-100® of a QA ester at Rf=0.2-0.3. […] It is quite clear that either strong acid or base treatment converted QAL to QA, and left only QA remaining, thus supporting the fact that the isolation of QA from C-MED-100® after base elution from silica gel was likely to have been originally present as a QA ester.

SMILES: S=C(S)N1CCCC1 [PDTC, pyrollidine dithiocarbamate, reference compound]
phosphorylation of IκBα (IκBα): potently inhibited
LPS-induced breakdown of IκBα (IκBα; 2 h pretreatment): inhibits both the breakdown of IκBα and its resynthesis

SMILES: O=C1O[C@@H]2C[C@@]1(O)C[C@@H](O)[C@H]2O [QAL #1 batch syn., quinic acid lactone]
HL-60 MTT IC50 ([1]; no base hydrolysis): 1200 µg/mL

SMILES: O=C([O-])C1(O)CC(O)C(O)[C@H](O)C1.[Na+] (some centres unmarked) [Quinic acid (QA) sodium salt]
HL-60 MTT IC50 ([1]; no base hydrolysis): 1500 µg/mL
in vitro cytotoxicity compared to C-MED-100 (FIG. 8) [2]: in vitro cytotoxicity comparable to that of C-MED-100®

Bioassay after 1% aqueous ammonia IC50 HL-60 cells (HL-60 W6899 cells; after 1% aqueous ammonia): >3000 µg/mL
Bioassay efficacy using IC50 in HL-60 cells (HL-60 W6899 cells): 80 µg/mL
% Degraded (Bartos Reaction A490 nm) ([3]; 1M NaOH): 74.1%
% Degraded (Bartos Reaction A490 nm) ([3]; 1N HCl): 58.2%
SMILES: O=C1O[C@@H]2C[C@@]1(O)C[C@@H](O)[C@H]2O [Quinic acid lactone, quinic acid lactone]
HL-60 MTT IC50 ([1]; no base hydrolysis, listed as QAL #2 batch syn.): >2300 µg/mL
HL-60 MTT IC50 ([1]; sample treated +2 M NaOH, 2 hr): 1600 µg/mL
